In assay [1] the target is T1, human full-length MKNK1 (Homo sapiens (Human), UniProt Q9BUB5, T344D). Nature of the assay: MKNK1 kinase assay (MKNK1 TR-FRET assay). The class given is biochemical. The following applies: 10 μM ATP final conc.; 15 min preincubation with enzyme.
Assay [2] deals with T1, human full-length MKNK1. The assay can be described thus: MKNK1 kinase high ATP assay (TR-FRET-based). The class given is biochemical. The following applies: 2 mM ATP final conc.; 15 min preincubation with enzyme. The procedure:
MKNK1 Kinase High ATP Assay
MKNK1-inhibitory activity at high ATP of compounds of the present invention after their preincubation with MKNK1 was quantified employing the TR-FRET-based MKNK1 high ATP assay as described in the following paragraphs.
As substrate for the kinase reaction the biotinylated peptide biotin-Ahx-[…] (C-terminus in amide form) was used, which can be purchased e.g. from the company Biosyntan (Berlin-Buch, Germany).
For the assay 50 nL of a 100 fold concentrated solution of the test compound in DMSO was pipetted into a black low volume 384 well microtiter plate (Greiner Bio-One, Frickenhausen, Germany), 2 μL of a solution of MKNK1 in aqueous assay buffer [50 mM HEPES pH 7.5, 5 mM magnesium chloride, 1.0 mM dithiothreitol, 0.005% (v/v) Nonidet-P40 (Sigma)] was added and the mixture was incubated for 15 min at 22° C. to allow pre-binding of the test compounds to the enzyme before the start of the kinase reaction. Then the kinase reaction was started by the addition of 3 μL of a solution of adenosine-tri-phosphate (ATP, 3.3 mM=>final conc. in the 5 μL assay volume is 2 mM) and substrate (0.1 μM=>final conc. in the 5 μL assay volume is 0.06 μM) in assay buffer and the resulting mixture was incubated for a reaction time of 30 min at 22° C. The concentration of MKNK1 was adjusted depending of the activity of the enzyme lot and was chosen appropriate to have the assay in the linear range, typical concentrations were in the range of 0.003 μg/mL. The reaction was stopped by the addition of 5 μL of a solution of TR-FRET detection reagents (5 nM streptavidine-XL665 [Cisbio Bioassays, Codolet, France] and 1 nM anti-ribosomal protein S6 (pSer236)-antibody from Invitrogen [#44921G] and 1 nM LANCE EU-W1024 labeled ProteinG [Perkin-Elmer, product no. AD0071]) in an aqueous EDTA-solution (100 mM EDTA, 0.1% (w/v) bovine serum albumin in 50 mM HEPES pH 7.5).
The resulting mixture was incubated for 1 h at 22° C. to allow the formation of complex between the phosphorylated biotinylated peptide and the detection reagents. Subsequently the amount of phosphorylated substrate was evaluated by measurement of the resonance energy transfer from the Eu-chelate to the streptavidine-XL. Therefore, the fluorescence emissions at 620 nm and 665 nm after excitation at 350 nm were measured in a TR-FRET reader, e.g. a Rubystar (BMG Labtechnologies, Offenburg, Germany) or a Viewlux (Perkin-Elmer). The ratio of the emissions at 665 nm and at […] was taken as the measure for the amount of phosphorylated substrate. The data were normalised (enzyme reaction without inhibitor=0% inhibition, all other assay components but no enzyme=100% inhibition).

pIC50: −log10 of the molar value.

T1 sequence (Q9BUB5 other isoform, or with tags, fused parts or gaps T344D): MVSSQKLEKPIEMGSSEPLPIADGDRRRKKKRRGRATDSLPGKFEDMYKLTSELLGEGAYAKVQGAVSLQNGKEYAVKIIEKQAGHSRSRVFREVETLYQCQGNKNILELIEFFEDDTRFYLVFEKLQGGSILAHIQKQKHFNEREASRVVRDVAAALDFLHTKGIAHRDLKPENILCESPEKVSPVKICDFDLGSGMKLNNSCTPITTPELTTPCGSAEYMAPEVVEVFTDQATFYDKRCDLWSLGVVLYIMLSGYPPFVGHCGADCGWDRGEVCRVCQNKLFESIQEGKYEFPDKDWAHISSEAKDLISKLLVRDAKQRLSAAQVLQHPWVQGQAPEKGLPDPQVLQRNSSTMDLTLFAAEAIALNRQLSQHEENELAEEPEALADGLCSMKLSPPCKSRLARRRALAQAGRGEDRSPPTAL

Regarding `NC1(COc2ccc3ncc(-c4cc5ccccc5o4)n3n2)CC1` [Example 51, 1-({[3-(1-Benzofuran-2-yl)imidazo[1,2-b]pyridazin-6-yl]oxy}methyl)cyclopropanamine], the values for the negative-log IC50 (pIC50) on human full-length MKNK1 [1] and at human full-length MKNK1 [2] were 7.54 and 7.13, respectively.

On to `NCC(COc1ccc2ncc(-c3cc4ccccc4o3)n2n1)c1ccccc1` (stereo not shown) [Example 52, 3-{[3-(1-Benzofuran-2-yl)imidazo[1,2-b]pyridazin-6-yl]oxy}-2-phenylpropan-1-amine], for which the pIC50 on human full-length MKNK1 [1] was 7.77; against human full-length MKNK1 [2] it was 7.52.

These data come from patent US9499547B2 (BAYER INTELLECTUAL PROPERTY GMBH, priority 2011, dated 2016).
